Data on 13 compounds can be found in patent US9120812B2, “Pyrimidooxazocine derivatives as mTOR-inhibitors” (SANOFI, priority 2012, dated 2015).

One test deals with PI3Kα (p110α/p85α) (Homo sapiens (Human), UniProt P42336). Nature of the test: PI3Kα enzymatic test by measuring the consumption of ATP. It counts as biochemical. In short, it runs like this:
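ATP consumption read out by KinaseGlo luminescence after a 90 min reaction of 1.7 μg/ml PI3Kα (p110α/p85α) with 2 μM ATP and 50 μM PIP2, buffered at pH 7.5 (Tris, 10 mM MgCl2, 1 mM EGTA, 0.03% Chaps, 1 mM DTT). Threefold dilution series over ≥10 000-fold range yield IC50.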

Another test relates to U87MG tumour cells. Nature of the test: Test of in vitro proliferation of U87MG tumour cells. It counts as cell-based. As to conditions: Homo sapiens, U-87 MG, 72 h, U87MG cells, 72 hours; read-out: U87 Cell Proliferation IC50. On the procedure:
Model 4: Test of in vitro Proliferation of U87MG Tumour Cells.
The cell growth is determined with the reagent CellTiter 96 AQueous One Solution Cell Proliferation Assay from Promega (Cat. No. G3581).

In test [1] the target is mTOR (human recombinant aa mTOR 1360-2549) (Homo sapiens (Human), UniProt P42345). Nature of the test: mTOR enzymatic test by TR-FRET (phosphorylation of GFP-4EBP1). In kind it is biochemical. In short, it runs like this: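 After a 30 min room-temperature kinase reaction, EDTA (10 mM final) and Tb-labelled phospho-Thr46 antibody (2 nM final) were added and incubated 60 min. Energy transfer from Tb to phosphorylated GFP-4EBP1 was read at 340 nm excitation, emissions 490/520 nm. Values derive from the 520/490 fluorescence ratio.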
Sequence of mTOR (human recombinant aa mTOR 1360-2549) (P42345 1360-2549): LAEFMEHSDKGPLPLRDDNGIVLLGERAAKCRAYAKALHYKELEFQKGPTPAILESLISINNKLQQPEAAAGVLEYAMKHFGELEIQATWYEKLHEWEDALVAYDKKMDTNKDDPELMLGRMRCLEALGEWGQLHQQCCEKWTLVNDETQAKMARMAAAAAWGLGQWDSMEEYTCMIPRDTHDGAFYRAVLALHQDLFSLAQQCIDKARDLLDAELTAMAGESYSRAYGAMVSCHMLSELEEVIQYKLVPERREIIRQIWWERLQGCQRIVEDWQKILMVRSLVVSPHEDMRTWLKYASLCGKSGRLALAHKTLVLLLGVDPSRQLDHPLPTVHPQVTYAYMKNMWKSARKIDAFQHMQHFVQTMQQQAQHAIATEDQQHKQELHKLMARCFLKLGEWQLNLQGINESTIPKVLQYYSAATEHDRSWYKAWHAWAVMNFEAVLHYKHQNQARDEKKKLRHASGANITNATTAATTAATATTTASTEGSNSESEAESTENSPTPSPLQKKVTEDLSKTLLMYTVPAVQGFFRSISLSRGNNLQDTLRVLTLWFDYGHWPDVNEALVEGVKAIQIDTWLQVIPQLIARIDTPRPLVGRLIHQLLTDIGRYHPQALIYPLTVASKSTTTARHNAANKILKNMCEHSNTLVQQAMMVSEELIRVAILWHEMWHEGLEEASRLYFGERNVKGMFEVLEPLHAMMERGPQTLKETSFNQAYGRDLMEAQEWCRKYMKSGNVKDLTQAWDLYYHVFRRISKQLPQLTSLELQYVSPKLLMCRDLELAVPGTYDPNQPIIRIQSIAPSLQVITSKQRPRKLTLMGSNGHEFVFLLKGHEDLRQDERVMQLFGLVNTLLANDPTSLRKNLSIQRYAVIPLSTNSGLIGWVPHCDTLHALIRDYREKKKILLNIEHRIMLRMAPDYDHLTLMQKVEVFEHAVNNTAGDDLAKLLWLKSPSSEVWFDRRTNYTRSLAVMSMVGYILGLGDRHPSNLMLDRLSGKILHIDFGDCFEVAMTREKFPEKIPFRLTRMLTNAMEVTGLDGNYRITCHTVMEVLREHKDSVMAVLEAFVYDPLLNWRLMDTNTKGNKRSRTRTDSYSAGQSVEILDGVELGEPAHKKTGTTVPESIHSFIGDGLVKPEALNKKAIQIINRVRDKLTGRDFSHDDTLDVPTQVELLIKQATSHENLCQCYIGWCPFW
On the technique in general: TR-FRET usually uses a lanthanide donor and a delayed reading to cut background.

The next test has as its system Akt-pS473 in U87MG cells. Particulars: Homo sapiens, U-87 MG, read-out: U87 Akt-pS473 % Inhibition or IC50, nM (IC50), U87MG cells.

Sequence of PI3Kα (p110α/p85α) (P42336 whole entry): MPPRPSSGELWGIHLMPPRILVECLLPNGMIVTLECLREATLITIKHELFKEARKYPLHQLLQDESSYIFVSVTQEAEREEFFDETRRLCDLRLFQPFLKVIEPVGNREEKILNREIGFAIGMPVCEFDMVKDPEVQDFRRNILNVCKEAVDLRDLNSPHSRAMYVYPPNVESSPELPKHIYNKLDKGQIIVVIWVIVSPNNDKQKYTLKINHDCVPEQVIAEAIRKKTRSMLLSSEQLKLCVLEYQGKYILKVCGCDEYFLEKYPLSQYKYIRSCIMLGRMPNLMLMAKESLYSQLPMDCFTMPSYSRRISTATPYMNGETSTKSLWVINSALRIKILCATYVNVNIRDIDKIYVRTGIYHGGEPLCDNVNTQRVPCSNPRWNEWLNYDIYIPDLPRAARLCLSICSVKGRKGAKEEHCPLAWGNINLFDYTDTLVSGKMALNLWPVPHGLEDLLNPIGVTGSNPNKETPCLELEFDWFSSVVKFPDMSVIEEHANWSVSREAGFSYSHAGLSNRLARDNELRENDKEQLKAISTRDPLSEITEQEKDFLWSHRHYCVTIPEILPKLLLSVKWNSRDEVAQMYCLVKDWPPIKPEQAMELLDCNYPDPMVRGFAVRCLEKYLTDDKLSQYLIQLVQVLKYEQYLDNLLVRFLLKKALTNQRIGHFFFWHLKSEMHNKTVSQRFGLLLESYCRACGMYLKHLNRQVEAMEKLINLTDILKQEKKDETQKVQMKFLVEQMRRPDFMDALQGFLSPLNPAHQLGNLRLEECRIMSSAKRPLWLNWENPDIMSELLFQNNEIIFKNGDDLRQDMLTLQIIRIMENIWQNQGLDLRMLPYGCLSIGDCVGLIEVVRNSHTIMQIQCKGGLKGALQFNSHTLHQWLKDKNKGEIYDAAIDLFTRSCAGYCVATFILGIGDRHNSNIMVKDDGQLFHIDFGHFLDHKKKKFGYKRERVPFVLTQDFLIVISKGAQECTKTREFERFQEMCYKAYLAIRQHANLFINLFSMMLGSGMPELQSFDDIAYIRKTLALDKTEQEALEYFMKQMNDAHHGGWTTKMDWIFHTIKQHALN
Sequence of PI3Kα (p110α/p85α) (P27986 whole entry partner): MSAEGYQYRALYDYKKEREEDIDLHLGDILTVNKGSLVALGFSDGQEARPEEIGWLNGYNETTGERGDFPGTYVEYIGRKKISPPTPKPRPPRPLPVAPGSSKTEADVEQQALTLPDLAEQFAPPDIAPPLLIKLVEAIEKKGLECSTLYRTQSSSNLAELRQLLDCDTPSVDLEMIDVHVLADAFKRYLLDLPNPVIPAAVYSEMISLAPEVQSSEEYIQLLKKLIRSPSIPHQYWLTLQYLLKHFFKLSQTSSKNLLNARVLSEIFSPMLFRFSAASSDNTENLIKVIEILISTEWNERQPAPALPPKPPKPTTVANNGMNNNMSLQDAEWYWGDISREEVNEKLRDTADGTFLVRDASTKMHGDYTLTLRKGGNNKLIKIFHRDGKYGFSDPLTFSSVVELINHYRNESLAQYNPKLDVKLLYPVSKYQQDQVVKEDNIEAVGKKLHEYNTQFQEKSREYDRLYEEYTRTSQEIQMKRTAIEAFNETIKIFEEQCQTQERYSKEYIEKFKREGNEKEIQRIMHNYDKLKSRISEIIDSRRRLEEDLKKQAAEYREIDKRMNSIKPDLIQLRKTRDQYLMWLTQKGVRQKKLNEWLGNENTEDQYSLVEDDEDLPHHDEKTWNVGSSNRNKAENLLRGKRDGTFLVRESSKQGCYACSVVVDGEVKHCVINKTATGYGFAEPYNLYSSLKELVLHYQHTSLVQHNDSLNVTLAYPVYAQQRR

As to `CCN1CC(C)(C)Oc2nc(N3CC4CCC(C3)O4)nc(-c3ccc(NC(=O)Nc4ccc(N5CCN(C(=O)OC)CC5)cc4)c(F)c3)c2C1=O` [Example 236, 4-[4-(3-{4-[6-Ethyl-8,8-dimethyl-2-(8-oxa-3-azabicyclo[3.2.1]oct-3-yl)-5-oxo-5,6,7,8-tetrahydro-9-oxa-1,3,6-triazabenzocyclohepten-4-yl]-2-fluorophenyl}ureido)phenyl]piperazine-1-carboxylic acid methyl ester], the “PI3Ka IC50” value at PI3Kα (p110α/p85α) was more than 7200 nM. In addition, the values for the IC50 (in the test on U87MG tumour cells; in test [1]; in the test with Akt-pS473 in U87MG cells) were 29 nM, 112 nM and 20 nM, respectively.
Regarding `CCOC(=O)Nc1ccc(-c2nc(N3CC4CCC(C3)O4)nc3c2C(=O)N(CC)CC(C)(C)O3)cc1` [Example 106, {4-[6-Ethyl-8,8-dimethyl-2-(8-oxa-3-azabicyclo[3.2.1]oct-3-yl)-5-oxo-5,6,7,8-tetrahydro-9-oxa-1,3,6-triazabenzocyclohepten-4-yl]phenyl}carbamic acid ethyl ester], the “PI3Ka IC50” value at PI3Kα (p110α/p85α) is more than 10000 nM. The IC50 in the test with U87MG tumour cells was determined as 6560 nM; in test [1], 442 nM; in the test with Akt-pS473 in U87MG cells, 767 nM.
As to `CCN1CC(C)(C)Oc2nc(N3CC4CCC(C3)O4)nc(-c3ccc(NC(=O)Nc4ccc(C(=O)N(C)CCN(C)C)cc4)cc3)c2C1=O` [Example 176, N-(2-Dimethylaminoethyl)-4-(3-{4-[6-ethyl-8,8-dimethyl-2-(8-oxa-3-azabicyclo[3.2.1]oct-3-yl)-5-oxo-5,6,7,8-tetrahydro-9-oxa-1,3,6-triazabenzocyclohepten-4-yl]phenyl}ureido)-N-methylbenzamide], on PI3Kα (p110α/p85α), the “PI3Ka IC50” value is 100 nM. Moreover, the IC50 in the test on U87MG tumour cells is 83 nM; in test [1], 69 nM; in the test on Akt-pS473 in U87MG cells, 314 nM.
The corresponding values for `CCN1CC(C)(C)Oc2nc(N3CCOC[C@@H]3C)nc(-c3ccc(NC(=O)Nc4ccc(OC)cn4)c(F)c3)c2C1=O` [Example 163, 1-{4-[6-Ethyl-8,8-dimethyl-2-((S)-3-methylmorpholin-4-yl)-5-oxo-5,6,7,8-tetrahydro-9-oxa-1,3,6-triazabenzocyclohepten-4-yl]-2-fluorophenyl}-3-(5-methoxypyridin-2-yl)urea] are 3870 nM, 1020 nM, 55 nM and 130 nM.
For `CC[C@H]1COCCN1c1nc2c(c(-c3ccc(NC(=O)NC)c(F)c3)n1)C(=O)N(CC)CC(C)(C)O2` [Example 228, 1-{4-[6-Ethyl-2-((S)-3-ethylmorpholin-4-yl)-8,8-dimethyl-5-oxo-5,6,7,8-tetrahydro-9-oxa-1,3,6-triazabenzocyclohepten-4-yl]-2-fluorophenyl}-3-methylurea], the “PI3Ka IC50” value at PI3Kα (p110α/p85α) came out at 6600 nM. The values for the IC50 (in the test with U87MG tumour cells; in test [1]; in the test with Akt-pS473 in U87MG cells) were 229 nM, 70 nM and 72 nM, respectively.
The corresponding values for `CCN1CC(C)(C)Oc2nc(N3CC4CCC(C3)O4)nc(-c3ccc(NC(=O)Nc4ccc(N5CCCC5)nc4)c(F)c3)c2C1=O` [Example 32, 1-{4-[6-Ethyl-8,8-dimethyl-2-(8-oxa-3-azabicyclo[3.2.1]oct-3-yl)-5-oxo-5,6,7,8-tetrahydro-9-oxa-1,3,6-triazabenzocyclohepten-4-yl]-2-fluorophenyl}-3-(6-pyrrolidin-1-ylpyridin-3-yl)urea] are more than 10000 nM, 115 nM, 84 nM and 21 nM.
The matching figures for `CCN1CC(C)(C)Oc2nc(N3CCOC[C@@H]3C)nc(-c3ccc(NC(=O)Nc4ccc(C)nc4)c(F)c3)c2C1=O` [Example 161, 1-{4-[6-Ethyl-8,8-dimethyl-2-((S)-3-methylmorpholin-4-yl)-5-oxo-5,6,7,8-tetrahydro-9-oxa-1,3,6-triazabenzocyclohepten-4-yl]-2-fluorophenyl}-3-(6-methylpyridin-3-yl)urea]: 321 nM, 60 nM, 38 nM and 9 nM.
The matching figures for `CCN1CC(C)(C)Oc2nc(N3CCOC[C@@H]3C)nc(-c3ccc(NC(=O)Nc4cc(OC)c(F)cc4F)cc3)c2C1=O` [Example 208, 1-(2,4-Difluoro-5-methoxyphenyl)-3-{4-[6-ethyl-8,8-dimethyl-2-((S)-3-methylmorpholin-4-yl)-5-oxo-5,6,7,8-tetrahydro-9-oxa-1,3,6-triazabenzocyclohepten-4-yl]phenyl}urea]: 1240 nM, 181 nM, 81 nM and 26 nM.
As for `CCN1CC(C)(C)Oc2nc(N3CCOC[C@@H]3C)nc(-c3ccc(NC(=O)OCCO)cc3)c2C1=O` [Example 186, {4-[6-Ethyl-8,8-dimethyl-2-((S)-3-methylmorpholin-4-yl)-5-oxo-5,6,7,8-tetrahydro-9-oxa-1,3,6-triazabenzocyclohepten-4-yl]phenyl}carbamic acid 2-hydroxyethyl ester], the “PI3Ka IC50” value at PI3Kα (p110α/p85α) is 3940 nM. Moreover, the IC50 is 266 nM with U87MG tumour cells, 25 nM in test [1] and 60 nM with Akt-pS473 in U87MG cells.
`CCNC(=O)Nc1ccc(-c2nc(N3CCOC[C@@H]3C)nc3c2C(=O)N(CC)CC(C)(C)O3)cc1` [Example 98, 1-Ethyl-3-{4-[6-ethyl-8,8-dimethyl-2-((S)-3-methylmorpholin-4-yl)-5-oxo-5,6,7,8-tetrahydro-9-oxa-1,3,6-triazabenzocyclohepten-4-yl]phenyl}urea]: at PI3Kα (p110α/p85α), the “PI3Ka IC50” value is listed as 1138 nM. Moreover, the IC50 in the test with U87MG tumour cells came to 184 nM; in test [1], 26 nM; with Akt-pS473 in U87MG cells it was 20 nM.
The corresponding values for `CCN1CC(C)(C)Oc2nc(N3CC4CCC(C3)O4)nc(-c3ccc(NC(=O)Nc4cnc(OC)nc4)c(F)c3)c2C1=O` [Example 136, 1-{4-[6-Ethyl-8,8-dimethyl-2-(8-oxa-3-azabicyclo[3.2.1]oct-3-yl)-5-oxo-5,6,7,8-tetrahydro-9-oxa-1,3,6-triazabenzocyclohepten-4-yl]-2-fluorophenyl}-3-(2-methoxypyrimidin-5-yl)urea] are more than 10000 nM, 239 nM, 34 nM and 37 nM.
Consider `CCN1CC(C)(C)Oc2nc(N3CC4CCC(C3)O4)nc(-c3ccc(NC(=O)NCCO)cc3)c2C1=O` [Example 117, 1-{4-[6-Ethyl-8,8-dimethyl-2-(8-oxa-3-azabicyclo[3.2.1]oct-3-yl)-5-oxo-5,6,7,8-tetrahydro-9-oxa-1,3,6-triazabenzocyclohepten-4-yl]phenyl}-3-(2-hydroxyethyl)urea], for which the “PI3Ka IC50” value at PI3Kα (p110α/p85α) came to 7410 nM. The results for the IC50 (in the test with U87MG tumour cells; in test [1]; in the test with Akt-pS473 in U87MG cells) were 1700 nM, 25 nM and 812 nM, respectively.
`CCN1CC(C)(C)Oc2nc(N3CC4CCC(C3)O4)nc(-c3ccc(NC(=O)Nc4cncc(OC)n4)c(F)c3)c2C1=O` [Example 139, 1-{4-[6-Ethyl-8,8-dimethyl-2-(8-oxa-3-azabicyclo[3.2.1]oct-3-yl)-5-oxo-5,6,7,8-tetrahydro-9-oxa-1,3,6-triazabenzocyclohepten-4-yl]-2-fluorophenyl}-3-(6-methoxypyrazin-2-yl)urea]: on PI3Kα (p110α/p85α), the “PI3Ka IC50” value was more than 10000 nM. For the same compound, the IC50 in the test on U87MG tumour cells came out at 3010 nM; in test [1] it was 251 nM; with Akt-pS473 in U87MG cells, 721 nM.
